One data set in a line: in vitro. Particulars: human, hela cells, % viability.
As for `Cc1ccc2c(c1)N(CC(N)=O)C(=O)CO2` [CBK270208], the viability at 28.5 h, 10 µM was determined as 92.9%.

In the case of `Cn1cc(CCC(=O)NC(Cc2ccncc2)[C@H]2C[C@H](O)C2)cn1` (stereo partly drawn) [CBK307292], the viability at 28.5 h, 10 µM was 82.4%.

Consider `C/C(C(=O)O)=C(/C)C(=O)N1CCC2(C1)NCCc1c2[nH]c2ccccc12` (stereo not drawn) [CBK046995], for which the viability at 28.5 h, 10 µM stood at 100%.

As for `OCCCc1[nH]nc(-c2ccc(Cl)cc2)c1Br` [CBK006993], the viability at 28.5 h, 10 µM came to 59.2%.

As to `CCCCC(=O)Nc1ccc(S(N)(=O)=O)cc1` [CBK288490], the viability at 28.5 h, 10 µM came out at 113%.

Turning to `CCN1CC2(CCN(CCCn3c(=O)[nH]c4ccccc43)CC2)c2ccccc21` [CBK131483], the viability at 28.5 h, 10 µM is 93.7%.

For `COc1ccc(C(=O)N2CCC3(CCCN(C(=O)c4ccc5ncccc5c4)C3)C2)cc1OC` (stereo not drawn) [CBK131656], the viability at 28.5 h, 10 µM came out at 92.4%.

As for `Cn1c(SCC(=O)c2ccc(F)cc2)ncc(C(=O)Nc2ccccc2)c1=O` [CBK287672], the viability at 28.5 h, 10 µM is 111%.

On to `O=C(O)c1ccc(OCC(O)Cn2nnc3ccccc32)cc1` (stereo not drawn) [CBK286616], for which the viability at 28.5 h, 10 µM stood at 103%.

For the molecule `CC(C)Cc1cnc2c(c1SCc1ccc(F)cc1)c(=O)n(C)c(=O)n2C` [CBK294409], the viability at 28.5 h, 10 µM came out at 95.6%.

On to `Cc1cc(C)nc(N2CCN(C(=O)CCC(=O)NCc3cccc(C(F)(F)F)c3)CC2)n1` [CBK022261], for which the viability at 28.5 h, 10 µM is 107%.

Turning to `CC(=O)NC1(c2ccccc2)CCN(CC(O)c2ccccc2)CC1` (stereo not drawn) [CBK284819], the viability at 28.5 h, 10 µM was found to be 107%.

Regarding `COc1ccc(-c2cnc(N)c(N[C@H](C)c3ccccc3)n2)c(OC)c1OC` [CBK063747], the viability at 28.5 h, 10 µM was determined as 105%.

Regarding `COc1cccc(CNc2ccc3c4c(cccc24)CC3)c1OC` [CBK269688], the viability at 28.5 h, 10 µM stood at 92.5%.

On to `O=[N+]([O-])c1ccc(CN2CCN(C/C=C/c3ccccc3)CC2)o1` [CBK026551], for which the viability at 28.5 h, 10 µM is 85.1%.

Regarding `Cc1cc(O)ccc1C(CC(=O)O)c1ccccc1` (stereo not drawn) [CBK013350], the viability at 28.5 h, 10 µM was 100%.

On to `COC(=O)c1c(C)oc(C)c1S(=O)(=O)Nc1ccc(C(C)C)cc1` [CBK057115], for which the viability at 28.5 h, 10 µM amounted to 88%.

As to `O=S(=O)(c1cccc2nsnc12)N1CCN(C2CCCCC2)CC1` [CBK268173], the viability at 28.5 h, 10 µM came to 96.9%.

For `CCCc1onc(S(=O)(=O)c2ccc(C)cc2)c1NC` [CBK020322], the viability at 28.5 h, 10 µM amounted to 84.3%.

As for `Cc1nnc(SCc2cccc(Oc3ccccc3)c2)n1N` [CBK265714], the viability at 28.5 h, 10 µM was 104%.

Turning to `O=C(/C=C/c1ccco1)Nc1sc2c(c1C(=O)O)CCC2` [CBK263181], the viability at 28.5 h, 10 µM was found to be 97.7%.

Regarding `Cc1cc2ccccc2n2c(SCC(=O)NCc3ccco3)nnc12` [CBK265666], the viability at 28.5 h, 10 µM turned out to be 107%.

As to `CN(C)c1cccc2c(S(=O)(=O)n3c(=O)n(Cc4ccc(S(C)(=O)=O)cc4)c4ccccc43)cccc12` [CBK106535], the viability at 28.5 h, 10 µM stood at 103%.

Take `O=c1c2ccsc2ncn1Cc1nnc(-c2ccc(Br)o2)o1` [CBK295642]: the viability at 28.5 h, 10 µM was 88.7%.

Consider `COc1cc(OC)nc(C(NC(=O)C2CCN(C(=O)c3ccno3)CC2)c2ccc(Cl)cc2)n1` (stereo not drawn) [CBK060169], for which the viability at 28.5 h, 10 µM was determined as 115%.

Consider `Cn1cc(CN2CCOC[C@H]2c2nc(C(C)(C)C)c[nH]2)c2ccccc21` [CBK289322], for which the viability at 28.5 h, 10 µM was 118%.

Consider `Cc1onc(-c2ccccc2)c1C(=O)NCc1ccccc1` [CBK200116], for which the viability at 28.5 h, 10 µM amounted to 99.4%.

In the case of `CCc1ccc(O)c(NC(=S)NC(=O)c2cccc3c(Br)cccc23)c1` [CBK264385], the viability at 28.5 h, 10 µM is 111%.

With `Cc1ccccc1C(NC(=O)C1CCN(C(=O)NCc2ccccc2)CC1)c1ncccc1C` (stereo not drawn) [CBK060398], the viability at 28.5 h, 10 µM was found to be 94.9%.

Turning to `CN(C)C(=O)CN1C(=O)N2CCN=C2c2ccccc21` [CBK283961], the viability at 28.5 h, 10 µM was found to be 94.7%.

Take `CC(C)C[C@@H]1N[C@H](C(=O)NCc2cccnc2)Cc2c[nH]c3cccc1c23` [CBK289418]: the viability at 28.5 h, 10 µM is 90%.

On to `NC(=O)c1c(NC(=O)Cn2cnc([N+](=O)[O-])n2)sc2c1CCCC2` [CBK027935], for which the viability at 28.5 h, 10 µM was 98.6%.

On to `Cc1ccn(CCNC(=O)C2CCC(=O)N(CCc3ccccn3)C2)n1` (stereo not drawn) [CBK306998], for which the viability at 28.5 h, 10 µM was found to be 93.5%.

`N#Cc1ccc(COc2ccccc2)cc1` [CBK002738]: the viability at 28.5 h, 10 µM stood at 96.4%.

With `CCCCN(C=O)c1c(CC)nc2c(OCc3ccccc3C)cccn12` [CBK147639], the viability at 28.5 h, 10 µM was determined as 92.2%.

Take `O=C(c1ccco1)N1CCN(c2ncnc3scc(-c4cccs4)c23)CC1` [CBK267208]: the viability at 28.5 h, 10 µM amounted to 110%.

Take `N#CC1=C(N)n2c(s/c(=C\c3ccc(O)cc3)c2=O)=C(C#N)C1c1ccc(O)cc1` (stereo not drawn) [CBK217780]: the viability at 28.5 h, 10 µM is 103%.

Consider `COc1ccccc1-c1cccc(C2CCCN(C(=O)CCCc3ccccc3)C2)n1` (stereo not drawn) [CBK286217], for which the viability at 28.5 h, 10 µM amounted to 100%.

For `CCN1CCN(c2ccc(-c3ccc(OCC4CCN(C(=O)OC(C)(C)C)CC4)cn3)cn2)CC1` [CBK174505], the viability at 28.5 h, 10 µM came to 109%.

As for `Cc1ccc2cc(S(=O)(=O)Nc3cccc(C(=O)O)c3)ccc2c1` [CBK299812], the viability at 28.5 h, 10 µM stood at 101%.

With `CC(C)Nc1nc2ccccc2nc1OCCCN(C)C` [CBK113416], the viability at 28.5 h, 10 µM amounted to 108%.

On to `O=C(NC1=NCCS1)c1cc2ccccc2o1` [CBK058927], for which the viability at 28.5 h, 10 µM came out at 80.8%.

As for `CC[C@H]1CCCCN1C(=O)c1sc2ncccc2c1Cl` [CBK092276], the viability at 28.5 h, 10 µM stood at 104%.

On to `CC(C)C(=O)Nc1ccc2c(-c3ccc4c(c3)OCCCO4)ccnc2n1` [CBK073675], for which the viability at 28.5 h, 10 µM was determined as 96.7%.

With `O=C(O)c1cc(NC(=O)c2ccc3c(c2)C(=O)N(Cc2cccnc2)C3=O)cc(C(=O)O)c1` [CBK266761], the viability at 28.5 h, 10 µM stood at 108%.

Turning to `COc1ccc(-c2nc(-c3ccc(C(=O)N4CCOCC4)cc3)cnc2N)cc1` [CBK116509], the viability at 28.5 h, 10 µM is 108%.

Regarding `Cn1nccc1NS(=O)(=O)c1ccc(-c2cc(C(F)(F)F)on2)s1` [CBK062087], the viability at 28.5 h, 10 µM is 97.4%.

For `O=C(NCCO)c1cccc(-c2cncc(N3CCCCC3CCO)n2)c1` (stereo not drawn) [CBK037759], the viability at 28.5 h, 10 µM was determined as 104%.

In the case of `CC(=O)c1cccc(NC(=O)CN2CCCC2c2cccs2)c1` (stereo not drawn) [CBK305143], the viability at 28.5 h, 10 µM stood at 109%.

With `O=C(O)CCC(=O)Nc1ccccc1C(=O)NC1CCCCC1` [CBK267674], the viability at 28.5 h, 10 µM worked out at 105%.

Take `O=C(NCc1cccnc1)C(=O)Nc1cc2c3c(c1)CCC(=O)N3CCC2` [CBK287728]: the viability at 28.5 h, 10 µM was found to be 92%.

Take `O=C(CN1CCCC[C@H]2CN(C(=O)c3cccs3)C[C@H]21)NC1CC1` [CBK285504]: the viability at 28.5 h, 10 µM turned out to be 90.5%.

As for `OCCN1CC2(CCN(Cc3c(F)cccc3F)CC2)c2ccccc21` [CBK137010], the viability at 28.5 h, 10 µM worked out at 109%.

For the molecule `COC(=O)c1ccccc1NC(=O)CSc1nnc(-c2ccncc2)[nH]1` [CBK266324], the viability at 28.5 h, 10 µM came to 96.4%.

On to `OCc1ccc(-c2nccnc2NCc2cccs2)cc1` [CBK088689], for which the viability at 28.5 h, 10 µM was 99.1%.

With `CS(=O)(=O)Nc1cc2ccccc2c(-c2cccc(C(F)(F)F)c2)n1` [CBK085754], the viability at 28.5 h, 10 µM amounted to 92.9%.

Still in this data set, the particulars now being: human, hela cells, % viability, bulk resorufin, single well.
Regarding `CSc1cc(C)c2c(c1)COC1(CCN(C(=O)c3ccccc3C(=O)O)CC1)O2` [CBK060843], the viability at 28.5 h, 10 µM was 94.1%.

These data come from PMC12040169 (PLOS Biology, 2025).
